{
  "source": "patent US10899754B2",
  "about": "“Modulators of indoleamine 2,3-dioxygenase” (GLAXOSMITHKLINE INTELLECTUAL PROPERTY DEVELOPMENT LIMITED, priority 2016, dated 2021)",
  "key": {"[1]": {"test_system": "human peripheral blood mononuclear cells (PBMC)", "assay": "PBMC cytotoxicity assay (CellTiter-Glo)", "format": "cell-based", "settings": "2 days, pCC50", "procedure,_shortened": "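% cytotoxicity was taken from CellTiter-Glo luminescence, using wells without cells and stimulated DMSO wells as references, and fitted by four-parameter curve to give XC50. Cells were human PBMC at 50,000 per well, activated with 100 ng/ml IFN-γ plus 50 ng/ml LPS. Incubation with 11-point, 3-fold dilution series ran for 2 days at 37 °C.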"}, "[2]": {"target": "indoleamine 2, 3-dioxygenase (IDO1) (Homo sapiens, UniProt P14902)", "sequence (P14902 whole entry)": "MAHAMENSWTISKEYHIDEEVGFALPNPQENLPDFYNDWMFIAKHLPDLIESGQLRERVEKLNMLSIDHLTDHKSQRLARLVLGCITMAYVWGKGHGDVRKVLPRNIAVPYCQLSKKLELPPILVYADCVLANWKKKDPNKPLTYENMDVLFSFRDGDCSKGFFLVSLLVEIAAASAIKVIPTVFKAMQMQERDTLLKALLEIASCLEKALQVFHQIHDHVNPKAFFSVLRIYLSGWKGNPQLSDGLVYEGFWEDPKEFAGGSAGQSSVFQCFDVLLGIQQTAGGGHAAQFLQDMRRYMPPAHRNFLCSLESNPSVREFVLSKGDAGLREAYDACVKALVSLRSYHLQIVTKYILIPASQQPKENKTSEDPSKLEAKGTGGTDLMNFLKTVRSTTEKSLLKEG", "assay": "IDO1 PBMC RapidFire MS assay (kynurenine detection by mass spectrometry)", "format": "cell-based", "design": "to induce the expression of indoleamine 2, 3-dioxygenase (IDO1); host or cells: human PBMC stimulated with IFN-gamma and LPS", "settings": "human PBMC stimulated with IFN-γ and LPS, 2 days, pIC50, read-out: PBMC PXC50 (converted)", "procedure,_shortened": "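Kynurenine output, read by RapidFire mass spectrometry as ratio to an internal standard, was measured after 2-day compound exposure (11-point, 3-fold dilutions) of human PBMCs induced with 100 ng/ml IFN-γ and 50 ng/ml LPS. Cell viability tracked alongside via ATP luminescence; XC50 from curve fitting.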"}},
  "data": [
    {"smiles": "CC(C)CN(c1ccc(C(C)CC(=O)O)cc1Nc1nnc(C(N)=O)s1)C1CCCCC1", "note": "(stereo not shown) [Example 80, 3-(3-((5-carbamoyl-1,3,4-thiadiazol-2-yl)amino)-4-(cyclohexyl(isobutyl)amino)phenyl)butanoic]", "values": [
      {"measurement": "PBMC TOX PXC50", "setting": "[1]", "result": "<5"},
      {"measurement": "IC50", "setting": "[2]", "result": 1.58, "unit": "nM"}
    ]},
    {"smiles": "CC(C)CN(CCCCCNC(=O)OC1CC/C=C/CCC1)c1ccc(C(C)CC(=O)O)cc1Nc1nc(C(F)(F)F)ns1", "note": "(stereo not shown) [example 259, 3-(4-{[5-({[(4E)-cyclooct-4-en-1-yloxy]carbonyl}amino)pentyl](2-methylpropyl)amino}-3-{[3-(trifluoromethyl)-1,2,4-thiadiazol-5-yl]amino}phenyl)butanoic acid]", "values": [
      {"measurement": "PBMC TOX PXC50", "setting": "[1]", "result": "<4.3"},
      {"measurement": "IC50", "setting": "[2]", "result": 100, "unit": "nM"}
    ]},
    {"smiles": "CNC(=O)c1c[nH]c(Nc2cc([C@H](C)CC(=O)O)ccc2N(CC(C)C)C2CCOCC2)n1", "note": "[example 232, (3R)-3-(3-{[4-(methylcarbamoyl)-1H-imidazol-2-yl]amino}-4-[(2-methylpropyl)(oxan-4-yl)amino]phenyl)butanoic acid]", "values": [
      {"measurement": "PBMC TOX PXC50", "setting": "[1]", "result": "<5"},
      {"measurement": "IC50", "setting": "[2]", "result": 3160, "unit": "nM"}
    ]},
    {"smiles": "CC(C)CN(CCCCCN)c1ccc([C@H](C)CC(=O)O)cc1Nc1nc(C(F)(F)F)ns1", "note": "[example 229, (3R)-3-{4-[(5-aminopentyl)(2-methylpropyl)amino]-3-{[3-(trifluoromethyl)-1,2,4-thiadiazol-5-yl]amino}phenyl}butanoic acid]", "values": [
      {"measurement": "PBMC TOX PXC50", "setting": "[1]", "result": "<5"},
      {"measurement": "IC50", "setting": "[2]", "result": 50.1, "unit": "nM"}
    ]},
    {"smiles": "COCc1nc(Nc2cc([C@H](C)CC(=O)O)ccc2N(CC(C)C)[C@H]2CC[C@@H](OC)CC2)n[nH]1", "note": "(racemic) [example 243, (3RS)-3-(3-{[5-(methoxymethyl)-1H-1,2,4-triazol-3-yl]amino}-4-[(2-methylpropyl)[(1rs&,4rs&)-4-methoxycyclohexyl]ami-no]phenyl)butanoic acid]", "values": [
      {"measurement": "PBMC TOX PXC50", "setting": "[1]", "result": "<5"},
      {"measurement": "IC50", "setting": "[2]", "result": 31.6, "unit": "nM"}
    ]},
    {"smiles": "CNC(=O)c1nc(Nc2cc([C@H](C)CC(=O)O)ccc2N(CC(C)C)[C@H]2CC[C@@H](OC)CC2)n[nH]1", "note": "(racemic) [example 246, (3RS)-3-(3-{[5-(methylcarbamoyl)-1H-1,2,4-triazol-3-yl]amino}-4-[(2-methylpropyl)[(1rs&,4rs&)-4-methoxycyclohexyl]ami-no]phenyl)butanoic acid]", "values": [
      {"measurement": "PBMC TOX PXC50", "setting": "[1]", "result": "<5"},
      {"measurement": "IC50", "setting": "[2]", "result": 25.1, "unit": "nM"}
    ]},
    {"smiles": "CC[C@H](CC(=O)O)c1ccc(N(CC(C)C)C2CCOCC2)c(Nc2n[nH]c(C3CC3)n2)c1", "note": "[Example 41, (R)-3-(3-((5-cyclopropyl-1H-1,2,4-triazol-3-yl)amino)-4-(isobutyl(tetrahydro-2H-pyran-4-yl)amino)phenyl)pentanoic Acid]", "values": [
      {"measurement": "PBMC TOX PXC50", "setting": "[1]", "result": "<5"},
      {"measurement": "IC50", "setting": "[2]", "result": 7.94, "unit": "nM"}
    ]},
    {"smiles": "CC(C)CN(c1ccc(C(C)N)cc1Nc1nc(C(F)(F)F)ns1)C1CCOCC1", "note": "(stereo not shown) [example 234, 4-(1-aminoethyl)-N1-(2-methylpropyl)-N1-(oxan-4-yl)-N2-[3-(trifluoromethyl)-1,2,4-thiadiazol-5-yl]benzene-1,2-diamine]", "values": [
      {"measurement": "PBMC TOX PXC50", "setting": "[1]", "result": "<5"},
      {"measurement": "IC50", "setting": "[2]", "result": 501, "unit": "nM"}
    ]},
    {"smiles": "CC(C)CN(c1ccc(C(C)CC(=O)O)cc1Nc1nnc(C(=O)N(C)C)s1)C1CCCCC1", "note": "(stereo not shown) [example 244, 3-{4-[cyclohexyl(2-methylpropyl)amino]-3-{[5-(dimethylcarbamoyl)-1,3,4-thiadiazol-2-yl]amino}phenyl}butanoic acid]", "values": [
      {"measurement": "PBMC TOX PXC50", "setting": "[1]", "result": 5.7},
      {"measurement": "IC50", "setting": "[2]", "result": 50.1, "unit": "nM"}
    ]},
    {"smiles": "CC(C)CN(c1ccc([C@H](C)CC(=O)O)cc1Nc1n[nH]c(C(N)=O)n1)C1CCCCC1", "note": "[Example 84, (R)-3-(3-((5-carbamoyl-1H-1,2,4-triazol-3-yl)amino)-4-(cyclohexyl(isobutyl)amino)phenyl)butanoic Acid]", "values": [
      {"measurement": "PBMC TOX PXC50", "setting": "[1]", "result": "<5"},
      {"measurement": "IC50", "setting": "[2]", "result": 7.94, "unit": "nM"}
    ]},
    {"smiles": "CC(C)CN(c1ccc([C@H](C)CC(=O)O)cc1Nc1ccc(C(F)(F)F)nc1)C1CCOCC1", "note": "[Example 7, (R)-3-(4-(isobutyl(tetrahydro-2H-pyran-4-yl)amino)-3-((6-(trifluoromethyl)pyridin-3-yl)amino)phenyl)butanoic Acid]", "values": [
      {"measurement": "PBMC TOX PXC50", "setting": "[1]", "result": "<5"},
      {"measurement": "IC50", "setting": "[2]", "result": 0.631, "unit": "nM"}
    ]}
  ]
}
